Molecules are shown by their SMILES. pKi: −log10 of the molar value.

A word on the pKi: it is the negative decadic logarithm of the Ki, by convention in mol/L. A high value points to a low Ki.

This experiment deals with T1, h-GABAA α5β2γ1 (Homo sapiens, UniProt P31644+Q8N1C3).
T1 construct: expressed in transfected cells; host or cells: HEK293F cells (ThermoFisher R79007), membranes
T1 sequence (P31644 32-462): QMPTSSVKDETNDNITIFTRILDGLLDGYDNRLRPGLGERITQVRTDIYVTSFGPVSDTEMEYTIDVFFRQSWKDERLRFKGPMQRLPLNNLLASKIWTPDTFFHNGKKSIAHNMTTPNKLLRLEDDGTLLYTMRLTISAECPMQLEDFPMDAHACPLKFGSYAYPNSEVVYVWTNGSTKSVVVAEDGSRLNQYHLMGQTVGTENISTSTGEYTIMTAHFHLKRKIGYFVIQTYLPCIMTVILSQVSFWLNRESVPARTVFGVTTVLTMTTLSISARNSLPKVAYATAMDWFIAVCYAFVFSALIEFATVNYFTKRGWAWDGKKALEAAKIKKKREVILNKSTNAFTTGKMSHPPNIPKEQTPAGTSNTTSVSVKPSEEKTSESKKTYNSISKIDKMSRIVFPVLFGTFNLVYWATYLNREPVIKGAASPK
T1 sequence (P47870 25-512 partner limits assumed): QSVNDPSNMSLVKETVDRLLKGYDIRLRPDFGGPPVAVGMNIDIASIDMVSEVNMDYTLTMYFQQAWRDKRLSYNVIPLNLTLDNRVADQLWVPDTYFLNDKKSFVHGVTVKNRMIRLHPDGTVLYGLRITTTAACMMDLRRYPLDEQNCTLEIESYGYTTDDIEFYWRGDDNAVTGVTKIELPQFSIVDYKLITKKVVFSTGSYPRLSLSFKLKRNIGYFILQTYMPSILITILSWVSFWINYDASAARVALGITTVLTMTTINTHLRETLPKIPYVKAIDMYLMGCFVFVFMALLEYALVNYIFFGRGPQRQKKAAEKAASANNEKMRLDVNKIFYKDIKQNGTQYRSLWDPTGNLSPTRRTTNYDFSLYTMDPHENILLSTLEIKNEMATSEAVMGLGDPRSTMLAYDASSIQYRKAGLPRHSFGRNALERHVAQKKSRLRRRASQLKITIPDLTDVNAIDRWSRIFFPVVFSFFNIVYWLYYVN
T1 sequence (Q8N1C3 36-465): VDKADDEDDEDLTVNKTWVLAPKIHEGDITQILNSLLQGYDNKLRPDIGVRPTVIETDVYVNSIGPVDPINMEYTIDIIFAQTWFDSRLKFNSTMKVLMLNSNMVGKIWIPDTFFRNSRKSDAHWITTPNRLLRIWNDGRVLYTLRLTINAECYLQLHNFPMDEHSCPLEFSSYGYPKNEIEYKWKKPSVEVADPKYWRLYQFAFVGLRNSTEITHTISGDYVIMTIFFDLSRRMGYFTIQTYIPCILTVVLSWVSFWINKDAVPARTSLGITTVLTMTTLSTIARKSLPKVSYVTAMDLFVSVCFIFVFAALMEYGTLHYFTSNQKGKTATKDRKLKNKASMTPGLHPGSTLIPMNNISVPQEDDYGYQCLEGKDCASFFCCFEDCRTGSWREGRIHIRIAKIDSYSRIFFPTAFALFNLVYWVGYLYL
Kind of experiment: Radioligand binding assay, [3H]RO7239181 competition, HEK293F membranes. The procedure: The affinity of compounds at GABAA γ1 subunit-containing receptors was measured by competition for [^3H]RO7239181 (67.3 Ci/mmol; Roche) binding to membranes from HEK293F cells (ThermoFisher R79007) expressing human (transiently transfected) receptors of composition […], α2β2γ1, α1β2γ1. For better protein expression of the α2 subunit-containing receptors, the 28 amino acid long signal peptide (Met1 to Ala28) of the human GABAA α2 subunit was substituted by the 31 amino acid long signal peptide (Met1 to Ser31) of human GABAA α5 subunit.
Harvested pellets from HEK293F cells expressing the different GABAA receptor subtypes were resuspended in Mannitol Buffer pH 7.2-7.4 (Mannitol 0.29M, Triethylamine 10 mM, Acetic acid 10 mM, EDTA 1 mM plus protease inhibitors (20 tablets Complete, Roche Diagnostics Cat. No. 05 056 489 001 per liter)), washed two times and then resuspended at 1:10 to 1:15 dilution in the same buffer. Cell disruption was performed by stirring the suspension in a Parr vessel #4637 at 435 psi for 15 minutes, and then the suspensions were centrifuged at 1000×g for 15 minutes at 4° C. (Beckman Avanti J-HC; rotor JS-4.2). The supernatant (S1) was transferred in a 21 Schott flask and the pellet (P1) was resuspended with Mannitol Buffer up to 175 ml. The resuspended pellet was transferred into a 250 ml Corning centrifugal beaker and centrifuged at 1500×g for 10 minutes at 4° C. (Beckman Avanti J-HC; rotor JS-4.2). The supernatant (S1) was then transferred in the 21 Schott flask and the pellet was discarded. The supernatants (S1) were centrifuged in 500 ml Beckman polypropylene centrifugal beaker at 15′000×g for 30 minutes at 4° C. (Beckman Avanti J-20 XP; rotor JLA-10.500). The pellet (P2) was resuspended with Mannitol Buffer 1:1 and frozen at −80° C. The supernatant (S2) was centrifuged in 100 ml Beckman polypropylene centrifugal tubes at 48000×g for 50 minutes at 4° C. (Beckman Avanti J-20 XP; rotor JA-18). The supernatant (S3) was discarded and the pellet (P3) was resuspended with 1:1 Mannitol Buffer. The P2 and P3 protein concentration was determined with the BIORAD Standard assay method with bovine serum albumin as standard and measured on the NANO-Drop 1000. The membrane suspension was aliquots (500 μl per tube) and stored at −80° C. until required. Membrane homogenates were resuspended and polytronised (Polytron PT1200E Kinematica AG) in Potassium Phosphate 10 mM, KCl 100 mM binding buffer at pH 7.4 to a final assay concentration determined with a previous experiment.
Radioligand binding assays were carried out in a volume of 200 μL (96-well plates) which contained 100 μL of cell membranes, [^3H]RO7239181 at a concentration of 1.5 nM (α5β2γ1) or 20-30 nM (α1β2γ1, α2β2γ1) and the test compound in the range of [0.3-10000]×10^−9 M. Nonspecific binding was defined by 10×10^−6 (α5β2γ1) and 30×10^−6 M RO7235136 and typically represented less than 5% (α5β2γ1) and less than 20% (α1β2γ1, α2β2γ1) of the total binding. Assays were incubated to equilibrium for 1 hour at 4° C. and then, membranes were filtered onto unifilter (96-well white microplate with bonded GF/C filters preincubated 20-50 minutes in 0.3% Polyethylenimine) with a Filtermate 196 harvester (Packard BioScience) and washed 4 times with cold Potassium Phosphate 10 mM pH 7.4, KCl 100 mM binding buffer. After drying, filter-retained radioactivity was detected by liquid scintillation counting. Ki values were calculated using Excel-Fit (Microsoft) and are the means of two determinations.
In the case of `CO[C@H]1C[C@H](c2nnc3n2-c2ccc(Cl)c(Cl)c2C(c2c(F)cccc2F)=NC3)C1` [Example 91, trans-7,8-dichloro-6-(2,6-difluorophenyl)-1-(3-methoxycyclobutyl)-4H-[1,2,4]triazolo[4,3-a][1,4]benzodiazepine], the pKi is 8.51.
As for `COc1ccc2c(c1Cl)C(c1c(F)cccc1F)=NCc1nnc(-c3cccnn3)n1-2` [Example 57, 7-chloro-6-(2,6-difluorophenyl)-8-methoxy-1-pyridazin-3-yl-4H-[1,2,4]triazolo[4,3-a][1,4]benzodiazepine], the pKi is 8.34.
Under `Fc1cccc(F)c1C1=NCc2nnc(-c3ccncn3)n2-c2ccc(Br)c(Br)c21` [Example 43, 7,8-dibromo-6-(2,6-difluorophenyl)-1-pyrimidin-4-yl-4H-[1,2,4]triazolo[4,3-a][1,4]benzodiazepine] stands 8.85; under `O=c1[nH]nc2n1-c1ccc(Cl)c(Cl)c1C(c1c(F)cccc1F)=NC2` [Example 9, 7,8-dichloro-6-(2,6-difluorophenyl)-2,4-dihydro-[1,2,4]triazolo[4,3-a][1,4]benzodiazepin-1-one], 9.15; under `Fc1ccccc1C1=NCc2nnc(-c3cccnn3)n2-c2ccc(Br)c(Cl)c21` [Example 3, 8-bromo-7-chloro-6-(2-fluorophenyl)-1-pyridazin-3-yl-4H-[1,2,4]triazolo[4,3-a][1,4]benzodiazepine], 8.82.
Next, `Cc1nnc2n1-c1ccc(C3CC3)c(Cl)c1C(c1c(F)cccc1F)=NC2` [Example 6, 7-chloro-8-cyclopropyl-6-(2,6-difluorophenyl)-1-methyl-4H-[1,2,4]triazolo[4,3-a][1,4]benzodiazepine]: 7.90.
As to `Fc1cccc(F)c1C1=NCc2nnc(-c3cccnn3)n2-c2ccc(Br)c(Cl)c21` [Example 104, 8-bromo-7-chloro-6-(2,6-difluorophenyl)-1-pyridazin-3-yl-4H-[1,2,4]triazolo[4,3-a][1,4]benzodiazepine], the pKi is 9.22.
For `Fc1ccccc1C1=NCc2nnc(-c3ccncn3)n2-c2ccc(Cl)c(Cl)c21` [Example 18, 7,8-dichloro-6-(2-fluorophenyl)-1-pyrimidin-4-yl-4H-[1,2,4]triazolo[4,3-a][1,4]benzodiazepine], the pKi is 8.59.
Next, `O=c1[nH]nc2n1-c1ccc(Cl)c(Cl)c1C(c1ncccc1F)=NC2` [Example 59, 7,8-dichloro-6-(3-fluoro-2-pyridyl)-2,4-dihydro-[1,2,4]triazolo[4,3-a][1,4]benzodiazepin-1-one]: 8.23; `Cc1ccc2c(c1Cl)C(c1c(F)cccc1F)=NCc1nnc(-c3cccnn3)n1-2` [Example 48, 7-chloro-6-(2,6-difluorophenyl)-8-methyl-1-pyridazin-3-yl-4H-[1,2,4]triazolo[4,3-a][1,4]benzodiazepine]: 8.96.
Next, `OCc1nnc2n1-c1ccc(Br)c(Cl)c1C(c1c(F)cccc1F)=NC2` [Example 33, [8-bromo-7-chloro-6-(2,6-difluorophenyl)-4H-[1,2,4]triazolo[4,3-a][1,4]benzodiazepin-1-yl]methanol]: 8.82.
Next, `Fc1cccnc1C1=NCc2nnc(-c3ccncn3)n2-c2ccc(C(F)(F)F)c(Cl)c21` [Example 69, 7-chloro-6-(3-fluoro-2-pyridyl)-1-pyrimidin-4-yl-8-(trifluoromethyl)-4H-[1,2,4]triazolo[4,3-a][1,4]benzodiazepine]: 8.15; `Fc1cccc(F)c1C1=NCc2nnc(-c3cccnn3)n2-c2ccc(I)c(Cl)c21` [Example 39, 7-chloro-6-(2,6-difluorophenyl)-8-iodo-1-pyridazin-3-yl-4H-[1,2,4]triazolo[4,3-a][1,4]benzodiazepine]: 9.10.
As to `Fc1cccnc1C1=NCc2nnc(C3CC3)n2-c2ccc(Br)c(Cl)c21` [Example 77, 8-bromo-7-chloro-1-cyclopropyl-6-(3-fluoro-2-pyridyl)-4H-[1,2,4]triazolo[4,3-a][1,4]benzodiazepine], the pKi is 8.55.
Under `Fc1cccnc1C1=NCc2nnc(-c3ccncn3)n2-c2ccc(Br)c(Cl)c21` [Example 46, 8-bromo-7-chloro-6-(3-fluoro-2-pyridyl)-1-pyrimidin-4-yl-4H-[1,2,4]triazolo[4,3-a][1,4]benzodiazepine] stands 8.41; under `Cc1nnc2n1-c1ccc(C(F)(F)F)c(Cl)c1C(c1ncccc1F)=NC2` [Example 78, 7-chloro-6-(3-fluoro-2-pyridyl)-1-methyl-8-(trifluoromethyl)-4H-[1,2,4]triazolo[4,3-a][1,4]benzodiazepine], 8.11; under `Cn1cc(-c2nnc3n2-c2ccc(C(F)(F)F)c(Cl)c2C(c2ncccc2F)=NC3)cn1` [Example 70, 7-chloro-6-(3-fluoro-2-pyridyl)-1-(1-methylpyrazol-4-yl)-8-(trifluoromethyl)-4H-[1,2,4]triazolo[4,3-a][1,4]benzodiazepine], 8.17.
Next, `Cc1nnc2n1-c1ccc(Br)c(Cl)c1C(c1ncccc1F)=NC2` [Example 24, 8-bromo-7-chloro-6-(3-fluoro-2-pyridyl)-1-methyl-4H-[1,2,4]triazolo[4,3-a][1,4]benzodiazepine]: 8.46; `Cl.NCc1nnc2n1-c1ccc(Br)c(Cl)c1C(c1c(F)cccc1F)=NC2` [Example 36, [8-bromo-7-chloro-6-(2,6-difluorophenyl)-4H-[1,2,4]triazolo[4,3-a][1,4]benzodiazepin-1-yl]methanamine hydrochloride]: 8.74.

For the origin of these results see US20230141603A1, “BENZODIAZEPINE DERIVATIVES AS GABA A GAMMA1 PAM” (Hoffmann-La Roche Inc., priority 2021, published 2023).
